Laboratory results published in patent US11415579B2, “Assay for measuring a rate of reaction between a target and a ligand candidate” (Imperial College Innovations Ltd., priority 2016, dated 2022).

Columns and labels:
Cdk2(S181C) (C177A) = molecular target: T1, Cdk2(S181C) (C177A) (Homo sapiens, UniProt P24941, C177A/S181C); assay: Kinetic thiol consumption assay with Cdk2 mutant S181C; format: binding; set-up: key to Rate enhancement, Cdk2 S181C: rate constant with Cdk2 ÷ rate constant with model thiol (fold); settings: additional mutation C177A; for Rate constant with Cdk2 S181C: Protein: Cdk2, cysteine position S181C, in h^-1
T1 construct: poly-histidine; made in house; host or cells: E. coli
Outline: (§1)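 5 μM thiol, degassed phosphate pH 8, 2% v/v immobilized TCEP beads; 1 h RT; fluorescence ex 380/em 470 nm; normalized vs DMSO/thiol-only; first-order exponential decay fit → rate constant; Cdk2 k / model-thiol k = rate enhancement per acrylamide.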

Cdk2(S276C) (C177A) = molecular target: T2, Cdk2(S276C) (C177A) (Homo sapiens, UniProt P24941, C177A/S276C); assay: Kinetic thiol consumption assay with Cdk2 mutant S276C; format: binding; set-up: key to Rate enhancement, Cdk2 S276C: rate constant with Cdk2 ÷ rate constant with model thiol (fold); settings: additional mutation C177A; for Rate constant with Cdk2 S276C: Protein: Cdk2, cysteine position S276C, in h^-1
T2 construct: poly-histidine; made in house; host or cells: E. coli
Outline: as §1

[1] = Kinetic thiol consumption assay with model thiol glutathione; format: physicochemical; set-up: Rate constant with glutathione (k(GSH)): unit not given here; settings: for Rate constant with glutathione (k(GSH)): 500 μM ligand, 5 μM thiol, phosphate buffer pH 8; for Rate constant with Glutathione: Protein: Glutathione, cysteine position NA, in h-1
Outline: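 GSH 5 μM, degassed phosphate buffer pH 8, TCEP beads 2% v/v; acrylamide added; RT, 1 h; fluorescence ex/em 380/470 nm; normalized to DMSO/thiol control; k from first-order exponential decay fit.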

Cdk2(T182C) (C177A) = molecular target: T3, Cdk2(T182C) (C177A) (Homo sapiens, UniProt P24941, C177A/T182C); assay: Kinetic thiol consumption assay with Cdk2 mutant T182C; format: binding; set-up: key to Rate enhancement, Cdk2 T182C: rate constant with Cdk2 ÷ rate constant with model thiol (fold); settings: additional mutation C177A; for Rate constant with Cdk2 T182C: Protein: Cdk2, cysteine position T182C, in h^-1
T3 construct: poly-histidine; made in house; host or cells: E. coli
Outline: as §1

Cdk2(H71C) (C177A) = molecular target: T4, Cdk2(H71C) (C177A) (Homo sapiens, UniProt P24941, C177A/H71C); assay: Kinetic thiol consumption assay with Cdk2 mutant H71C; format: binding; set-up: key to Rate enhancement, Cdk2 H71C: rate constant with Cdk2 ÷ rate constant with model thiol (fold); settings: additional mutation C177A; for Rate constant with Cdk2 H71C: Protein: Cdk2, cysteine position H71C, in h^-1
T4 construct: poly-histidine; made in house; host or cells: E. coli
Outline: as §1

Cdk2(N272C) (C177A) = molecular target: T5, Cdk2(N272C) (C177A) (Homo sapiens, UniProt P24941, C177A/N272C); assay: Kinetic thiol consumption assay with Cdk2 mutant N272C; format: binding; set-up: key to Rate enhancement, Cdk2 N272: rate constant with Cdk2 ÷ rate constant with model thiol (fold); settings: for Rate enhancement, Cdk2 N272: Cdk2 N272, additional mutation C177A; for Rate constant with Cdk2 N272C: Protein: Cdk2, cysteine position N272C, additional mutation C177A, in h^-1
T5 construct: poly-histidine; made in house; host or cells: E. coli
Outline: as §1

Cdk2(C177A, F80C) = molecular target: T6, Cdk2(C177A, F80C) (Homo sapiens, UniProt P24941, C177A/F80C); assay: Kinetic thiol consumption assay with Cdk2 mutant F80C, incl. kobs versus concentration (Kd, k2); format: binding; set-up: key to Rate enhancement, Cdk2 F80C: Cdk2 rate constant divided by model-thiol rate constant; settings: additional mutation C177A; for Rate constant with Cdk2 F80C: Protein: Cdk2, cysteine position F80C, in h^-1
T6 construct: poly-histidine; made in house; host or cells: E. coli
Outline: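 His-tagged Cdk2(C177A/F80C) from E. coli or model thiol, 5 μM in degassed phosphate buffer pH 8 with TCEP beads, reacted with acrylamide ligands; fluorescence (ex/em 380/470 nm) normalized to DMSO control and fitted to first-order decay for kobs. Kd and k2 obtained from hyperbolic fit of kobs versus ligand concentration.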

Cdk2[C177A, F80C, K278C] = molecular target: T7, Cdk2[C177A, F80C, K278C] (Homo sapiens, UniProt P24941, C177A/F80C/K278C); assay: Kinetic thiol consumption assay with mutant Cdk2 as model thiol; format: binding; set-up: unit not given here; settings: 500 μM ligand, 5 μM thiol, phosphate buffer pH 8
T7 construct: poly-histidine; made in house; host or cells: E. coli
Outline: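 Model thiol: His-tagged human Cdk2 C177A/F80C/K278C (two engineered surface cysteines), E. coli-expressed, 5 μM in degassed phosphate buffer pH 8 with immobilized TCEP beads (2% v/v). Fluorescence (ex/em 380/470 nm) followed over time at room temperature, normalized to DMSO/thiol control. First-order decay fit gives rate constants.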

Cdk2(R122C) (C177A) = molecular target: T8, Cdk2(R122C) (C177A) (Homo sapiens, UniProt P24941, C177A/R122C); assay: Kinetic thiol consumption assay with Cdk2 mutant R122C; format: binding; set-up: key to Rate enhancement, Cdk2 R122C: rate constant with Cdk2 ÷ rate constant with model thiol (fold); settings: additional mutation C177A; for Rate constant with Cdk2 R122C: Protein: Cdk2, cysteine position R122C, in h-1
T8 construct: poly-histidine; made in house; host or cells: E. coli
Outline: as §1

[2] = molecular target: T9, human cyclin-dependent kinase 2 (Cdk2) (Homo sapiens, UniProt P24941); assay: Kinetic thiol consumption assay with wild type Cdk2 (C177); format: binding; set-up: key to Rate enhancement, Cdk2 WT: k(Cdk2) divided by k(model thiol); Rate constant with Cdk2 (k(Cdk2)): unit not given here; settings: for Rate constant with Cdk2 (k(Cdk2)): 500 μM ligand, 5 μM thiol, phosphate buffer pH 8; for Rate enhancement, Cdk2 WT: no additional mutations; for Rate constant with Cdk2 WT: Protein: Cdk2, cysteine position WT, in h^-1; for k(Cdk2)/k(Cdk2_mut) rate enhancement: model thiol Cdk2[C177A, F80C, K278C]; for k(Cdk2)/k(GSH) rate enhancement: model thiol glutathione
T9 construct: poly-histidine; made in house; host or cells: E. coli
Outline: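 Rate constants came from first-order exponential decay fits of normalized fluorescence against time, with thiol (5 μM) in degassed pH 8 phosphate buffer containing 2% v/v TCEP beads and reads after 1 h at room temperature.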

C=CC(=O)N1CCN(C(=O)OC(C)(C)C)CC1 [CA-029]
Rate enhancement, Cdk2 S181C (Cdk2(S181C) (C177A)): 0.3298
Rate constant with Cdk2 S181C (Cdk2(S181C) (C177A)): 0.006959
Rate enhancement, Cdk2 S276C (Cdk2(S276C) (C177A)): 0.3272
Rate constant with Cdk2 S276C (Cdk2(S276C) (C177A)): 0.006904
Rate constant with glutathione (k(GSH)) [1]: 0.01716
Rate constant with Glutathione [1]: 0.0211
Rate enhancement, Cdk2 T182C (Cdk2(T182C) (C177A)): 1.766
Rate constant with Cdk2 T182C (Cdk2(T182C) (C177A)): 0.03726
Rate enhancement, Cdk2 H71C (Cdk2(H71C) (C177A)): 0.1266
Rate constant with Cdk2 H71C (Cdk2(H71C) (C177A)): 0.002672
Rate enhancement, Cdk2 N272 (Cdk2(N272C) (C177A)): 0.2719
Rate constant with Cdk2 N272C (Cdk2(N272C) (C177A)): 0.005738
Rate enhancement, Cdk2 F80C (Cdk2(C177A, F80C)): 0.1236
Rate constant with Cdk2 F80C (Cdk2(C177A, F80C)): 0.002607
Rate constant with Cdk2[C177A, F80C, K278C] (k(Cdk2_mut)) (Cdk2[C177A, F80C, K278C]): 0.00615
Rate enhancement, Cdk2 R122C (Cdk2(R122C) (C177A)): 0.2033
Rate constant with Cdk2 R122C (Cdk2(R122C) (C177A)): 0.004289
Rate constant with Cdk2 (k(Cdk2)) [2]: 0.00892
Rate enhancement, Cdk2 WT [2]: 0.4226
Rate constant with Cdk2 WT [2]: 0.008917
k(Cdk2)/k(Cdk2_mut) rate enhancement [2]: 1.45
k(Cdk2)/k(GSH) rate enhancement [2]: 0.5196

C=CC(=O)Nc1ccccc1N1CCOCC1 [CA-030]
Rate enhancement, Cdk2 S181C (Cdk2(S181C) (C177A)): 0.7478
Rate constant with Cdk2 S181C (Cdk2(S181C) (C177A)): 0.01251
Rate enhancement, Cdk2 S276C (Cdk2(S276C) (C177A)): 0.2657
Rate constant with Cdk2 S276C (Cdk2(S276C) (C177A)): 0.004445
Rate constant with glutathione (k(GSH)) [1]: 0.0159
Rate constant with Glutathione [1]: 0.01673
Rate enhancement, Cdk2 T182C (Cdk2(T182C) (C177A)): 0.5957
Rate constant with Cdk2 T182C (Cdk2(T182C) (C177A)): 0.009966
Rate enhancement, Cdk2 H71C (Cdk2(H71C) (C177A)): 0.1317
Rate constant with Cdk2 H71C (Cdk2(H71C) (C177A)): 0.002204
Rate enhancement, Cdk2 N272 (Cdk2(N272C) (C177A)): 0.2409
Rate constant with Cdk2 N272C (Cdk2(N272C) (C177A)): 0.00403
Rate enhancement, Cdk2 F80C (Cdk2(C177A, F80C)): 1.494
Rate constant with Cdk2 F80C (Cdk2(C177A, F80C)): 0.025
Rate constant with Cdk2[C177A, F80C, K278C] (k(Cdk2_mut)) (Cdk2[C177A, F80C, K278C]): 0.03859
Rate enhancement, Cdk2 R122C (Cdk2(R122C) (C177A)): 0.2896
Rate constant with Cdk2 R122C (Cdk2(R122C) (C177A)): 0.004845
Rate constant with Cdk2 (k(Cdk2)) [2]: 0.01069
Rate enhancement, Cdk2 WT [2]: 0.639
Rate constant with Cdk2 WT [2]: 0.01069
k(Cdk2)/k(Cdk2_mut) rate enhancement [2]: 0.277
k(Cdk2)/k(GSH) rate enhancement [2]: 0.6723

C=CC(=O)N(CC(=O)NC1CC1)C1CC1 [CA-031]
Rate enhancement, Cdk2 S181C (Cdk2(S181C) (C177A)): 0.5614
Rate constant with Cdk2 S181C (Cdk2(S181C) (C177A)): 0.009769
Rate enhancement, Cdk2 S276C (Cdk2(S276C) (C177A)): 0.5294
Rate constant with Cdk2 S276C (Cdk2(S276C) (C177A)): 0.009212
Rate constant with glutathione (k(GSH)) [1]: 0.01687
Rate constant with Glutathione [1]: 0.0174
Rate enhancement, Cdk2 T182C (Cdk2(T182C) (C177A)): 1.063
Rate constant with Cdk2 T182C (Cdk2(T182C) (C177A)): 0.01849
Rate enhancement, Cdk2 H71C (Cdk2(H71C) (C177A)): 0
Rate enhancement, Cdk2 N272 (Cdk2(N272C) (C177A)): 1.169
Rate constant with Cdk2 N272C (Cdk2(N272C) (C177A)): 0.02034
Rate enhancement, Cdk2 F80C (Cdk2(C177A, F80C)): 0.02876
Rate constant with Cdk2 F80C (Cdk2(C177A, F80C)): 0.0005005
Rate constant with Cdk2[C177A, F80C, K278C] (k(Cdk2_mut)) (Cdk2[C177A, F80C, K278C]): 0.00466
Rate enhancement, Cdk2 R122C (Cdk2(R122C) (C177A)): 0.221
Rate constant with Cdk2 R122C (Cdk2(R122C) (C177A)): 0.003846
Rate constant with Cdk2 (k(Cdk2)) [2]: 0.00688
Rate enhancement, Cdk2 WT [2]: 0.1766
Rate constant with Cdk2 WT [2]: 0.003072
k(Cdk2)/k(Cdk2_mut) rate enhancement [2]: 1.479
k(Cdk2)/k(GSH) rate enhancement [2]: 0.4081
